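Cells were grown in 96-well plates and exposed to each compound for 48 hours at five concentrations; endpoints were interpolated linearly between bracketing concentrations, or set to the highest concentration if not reached. GI50 is the concentration that inhibits growth by half.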 The source made the active and inactive calls. No stated cut-off is given here; in the data, active = GI50 up to about 1.1 µM and inactive = higher.
Key:
Assay in all cases: NCI tumour cell line growth inhibition, 48 h
SF-539 = tested on: SF-539
OVCAR-4 = tested on: OVCAR-4
EKVX = tested on: EKVX
HCT-116 = tested on: HCT-116
T47D = tested on: T47D
KM12 = tested on: KM12
IGROV-1 = tested on: IGROV-1
SN12C = tested on: SN12C
SR = tested on: SR
NCI-H460 = tested on: NCI-H460
TK-10 = tested on: TK-10
SF-268 = tested on: SF-268
LOX IMVI = tested on: LOX IMVI
CCRF-CEM = tested on: CCRF-CEM
SK-MEL-28 = tested on: SK-MEL-28
NCI-H23 = tested on: NCI-H23
MDA-N = tested on: MDA-N
NCI-H226 = tested on: NCI-H226
OVCAR-5 = tested on: OVCAR-5
NCI-H522 = tested on: NCI-H522

Compound	GI50 (SF-539)	GI50 (OVCAR-4)	GI50 (EKVX)	GI50 (HCT-116)	GI50 (T47D)	GI50 (KM12)	GI50 (IGROV-1)	GI50 (SN12C)	GI50 (SR)	GI50 (NCI-H460)	GI50 (TK-10)	GI50 (SF-268)	GI50 (LOX IMVI)	GI50 (CCRF-CEM)	GI50 (SK-MEL-28)	GI50 (NCI-H23)	GI50 (MDA-N)	GI50 (NCI-H226)	GI50 (OVCAR-5)	GI50 (NCI-H522)
CC(C)OC(=O)Nc1c([N+](=O)[O-])cc(C(F)(F)F)cc1[N+](=O)[O-]	23.9 µM (inactive)	> 100 µM (inactive)	> 100 µM (inactive)	> 100 µM (inactive)	> 100 µM (inactive)	> 100 µM (inactive)	> 66.7 µM (inactive)	> 91 µM (inactive)	> 67.5 µM (inactive)	> 100 µM (inactive)	> 100 µM (inactive)	39.4 µM (inactive)	> 100 µM (inactive)	> 100 µM (inactive)	> 100 µM (inactive)	69.5 µM (inactive)	> 100 µM (inactive)	> 89.1 µM (inactive)	> 100 µM (inactive)	> 95.7 µM (inactive)
CN1CCN([C@H]2C[C@H]3[C@@H]4CC=C5C[C@@H](O)CC[C@]5(C)[C@H]4CC[C@]3(C)C2=O)CC1	62.5 µM (inactive)	> 100 µM (inactive)	> 100 µM (inactive)	> 100 µM (inactive)	> 100 µM (inactive)	> 100 µM (inactive)	> 100 µM (inactive)	> 100 µM (inactive)	29.4 µM (inactive)	> 100 µM (inactive)	> 100 µM (inactive)	> 100 µM (inactive)	> 100 µM (inactive)	> 100 µM (inactive)	> 100 µM (inactive)	> 100 µM (inactive)	> 100 µM (inactive)	> 100 µM (inactive)	> 100 µM (inactive)	> 100 µM (inactive)
CCCCC(=O)OC[n+]1ccc2c(C)c3[nH]c4ccccc4c3c(C)c2c1	0.526 µM (active)	1.01 µM (active)	0.497 µM (active)	0.221 µM (active)	1.01 µM (active)	0.446 µM (active)	0.502 µM (active)	0.376 µM (active)	0.0895 µM (active)	0.0275 µM (active)	1.21 µM (inactive)	0.46 µM (active)	0.493 µM (active)	0.0432 µM (active)	1.32 µM (inactive)	0.14 µM (active)	0.484 µM (active)	0.475 µM (active)	0.525 µM (active)	0.773 µM (active)
Cc1cc2c(cc1C)N1C(Cl)=C3CCCCC3=C(C#N)C1N2 (stereo not given)	22.4 µM (inactive)	12.3 µM (inactive)	16.3 µM (inactive)	1.7 µM (inactive)	12.2 µM (inactive)	9.02 µM (inactive)	6.76 µM (inactive)	4.71 µM (inactive)	3.65 µM (inactive)	18 µM (inactive)	5.65 µM (inactive)	9.25 µM (inactive)	2.19 µM (inactive)	2.48 µM (inactive)	3.3 µM (inactive)	4.98 µM (inactive)	4.15 µM (inactive)	13.5 µM (inactive)	21.1 µM (inactive)	2 µM (inactive)
CN(C)CCNc1ccc(CO)c2oc3ccc(O)cc3c(=O)c12	12.3 µM (inactive)	13.8 µM (inactive)	21.9 µM (inactive)	6.4 µM (inactive)	13.3 µM (inactive)	14.4 µM (inactive)	19.1 µM (inactive)	12.9 µM (inactive)	1.14 µM (inactive)	4.24 µM (inactive)	17.1 µM (inactive)	9.31 µM (inactive)	11.5 µM (inactive)	4.56 µM (inactive)	16.9 µM (inactive)	11.5 µM (inactive)	12.8 µM (inactive)	11.7 µM (inactive)	16.8 µM (inactive)	4.32 µM (inactive)
O=S(=O)(O)c1ccc2c(/N=N/c3ccc(S(=O)(=O)O)c4ccccc34)c(O)c(S(=O)(=O)O)cc2c1	> 100 µM (inactive)	> 100 µM (inactive)	> 100 µM (inactive)	> 100 µM (inactive)	> 100 µM (inactive)	> 100 µM (inactive)	> 100 µM (inactive)	> 100 µM (inactive)	> 100 µM (inactive)	> 100 µM (inactive)	> 100 µM (inactive)	> 100 µM (inactive)	> 100 µM (inactive)	> 100 µM (inactive)	> 100 µM (inactive)	> 100 µM (inactive)	> 100 µM (inactive)	> 100 µM (inactive)	> 100 µM (inactive)	> 100 µM (inactive)
CC1COC(c2cn[nH]c2C(N)=O)C1O (stereo not given)	> 100 µM (inactive)	> 100 µM (inactive)	> 100 µM (inactive)	> 100 µM (inactive)	> 100 µM (inactive)	> 100 µM (inactive)	> 100 µM (inactive)	> 100 µM (inactive)	> 100 µM (inactive)	> 100 µM (inactive)	> 100 µM (inactive)	> 100 µM (inactive)	> 100 µM (inactive)	> 100 µM (inactive)	> 100 µM (inactive)	> 100 µM (inactive)	> 100 µM (inactive)	> 100 µM (inactive)	> 100 µM (inactive)	> 100 µM (inactive)

From ChEMBL document CHEMBL1201862, “PubChem BioAssay data set” (2004)
